Laboratory results reported in patent US20230310573A1, “Stabilized Vaccine Compositions” (priority 2020, published 2023).

How the values were obtained:
[1] = biological target: T1, RSV pre-fusion F protein of SEQ ID NO: 10 (Human respiratory syncytial virus A, UniProt P03420, D486N/DEL108-136/I379V/M447V/N67I/P102A/S215P); assay type: physicochemical; conditions: for trimer % after slow freeze with compound vs without: all formulation buffers (AP1, FB12, formulation 1 and 2); for aggregation after slow freeze: formulation 5b (pH 8.3) and 5a (pH 7.0)
T1 construct: made in house
Procedure: The RSV pre-fusion F protein of SEQ ID NO: 10 was diluted to 0.3 mg/ml in phosphate buffer (Formulation 1) and 0.75 ml was filled in glass injection vials with rubber stopper and sealed with aluminum caps. Additionally, protein was diluted in the formulation buffers with inhibitor in a 1:3 trimer:compound ratio. One inhibitor binds one trimer so with a 1:3 ratio there is an excess of inhibitor. […] In 24 hours, samples were cooled down from RT to −70° C. Samples were thawed to RT and analyzed by analytical Size Exclusion Chromatography (SEC) to measure loss of RSV F trimer.
0.75 ml of each formulation was filled in glass injection vials with rubber stopper and sealed with aluminum caps. Additionally, protein was diluted in the formulation buffers and inhibitor was added in a 1:1, 1:3, 1:9, 1:27 and 1:50 trimer: compound ratio. Final compound concentrations were 1.7×10^−6 M, 5.2×10^−6 M, 1.6×10^−5M, 4.6×10^−5, and 8.6×10^−5 M, respectively. Vials were slowly frozen to −70° C. in 24 hours. Samples were subsequently thawed to RT and analyzed by analytical Size Exclusion Chromatography (SEC) to measure loss of RSV F trimer compared the sample that was kept at 4° C.

[2] = biological target: T2, RSV pre-fusion F (preF) protein of SEQ ID NO: 10 (Human respiratory syncytial virus A, UniProt P03420, D486N/DEL108-136/I379V/M447V/N67I/P102A/S215P); assay type: physicochemical; conditions: with compound 1:3 trimer:compound in sample and UF/DF buffer; formulation 2 without PS20; two weeks after UF/DF
T2 construct: made in house
Procedure: The UF/DF was performed with and without compound. […] A kDa filter in the UF/DF (Cogent μscale TFF system (Merck Millipore, Burlington, MA)) was used and a diavolume of 350 ml UF/DF buffer was used.
After the UF/DF the hydrodynamic diameters were measured by Dynamic Light Scattering (DLS) UNcle from vendor Unchained Labs (Pleasanton, CA, US) two weeks after the UF/DF.

HIV Env ConB SOSIP = biological target: T3, HIV Env ConB SOSIP (Human immunodeficiency virus type 1 group M subtype B, UniProt P04578, A336T/A346V/A501C/A612T/D137T/D187N/D632E/D99N/DEL145-146/DEL310-311/DEL356-356/DEL401-405/DUP460-460/E409T/E464T/E509R/E620D/E630Q/F175L/F396S/G167D/G321D/H625N/H643Y/I148K/I181V/I182V/I320G/I360V/I467T/I559P/I580V/INS134N/INS317Y/INS395N/INS508RR/K130N/K135N/K192R/K322I/K362N/K429E/K510R/L518M/M147E/M326I/M535I/N230D/N325D/N624D/N636D/Q621E/R306S/R308H/S128T/S162T/S347K/S387T/S398G/S411N/S440R/S461N/S465T/S640G/S644T/T140N/T188N/T194I/T232K/T290E/T31A/T373M/T605C/T626M/V275E/V318A/V87E); assay: Storage stability of ConB-SOSIP Env, antigenicity by AlphaLISA (bNAbs / non-bNAbs); assay type: binding, HIV-1; conditions: 1 week at 4° C., 50-fold excess
T3 construct: made in house; host or cells: HEK293F
Procedure: HIV env trimer was incubated in Citrate buffer (20 mM Citrate. 75 mM NaCl 5% Sucrose, 0.03% Tween-80 pH 6.0) at 0.8 mg/ml for 1 week at 4° C. with or without inhibitor. Entry inhibitor XVII was added in a 50-fold excess to the purified Env ConB SOSIP. As the inhibitor was dissolved in DMSO, the control sample with only Env contained the same concentration of DMSO (1.95% v/v) as the Env with the inhibitor. The quality of HIV Env can be evaluated with broadly neutralizing antibodies (bNAbs) that bind the closed, native pre-fusion conformation of Env, versus non-broadly neutralizing antibodies (non-bNAbs) which recognize non natively folded Envs (Rutten et. al., Cell Reports 18). […] Preferential binding to bNAbs was higher and binding to all five tested non-bNAbs, except for 447-52D, was decreased for the composition that contained the inhibitor.

HIV-1 ConB-SOSIP Env = HIV-1 ConB-SOSIP Env (Human immunodeficiency virus type 1 group M subtype B, UniProt P04578, A336T/A346V/A501C/A612T/D137T/D187N/D632E/D99N/DEL145-146/DEL310-311/DEL356-356/DEL401-405/DUP460-460/E409T/E464T/E509R/E620D/E630Q/F175L/F396S/G167D/G321D/H625N/H643Y/I148K/I181V/I182V/I320G/I360V/I467T/I559P/I580V/INS134N/INS317Y/INS395N/INS508RR/K130N/K135N/K192R/K322I/K362N/K429E/K510R/L518M/M147E/M326I/M535I/N230D/N325D/N624D/N636D/Q621E/R306S/R308H/S128T/S162T/S347K/S387T/S398G/S411N/S440R/S461N/S465T/S640G/S644T/T140N/T188N/T194I/T232K/T290E/T31A/T373M/T605C/T626M/V275E/V318A/V87E); assay: Thermostability of HIV-1 ConB-SOSIP Env by nanoDSF; assay type: physicochemical; conditions: 50-fold molar excess of inhibitor; Env 0.8 mg/ml; DMSO 1.95% v/v

| SMILES | trimer % after slow freeze with compound vs without [1] | aggregation after slow freeze [1] | hydrodynamic diameter (DLS) after UF/DF [2] | trimer signal lost after slow freeze/thaw (analytical SEC) ([1]; phosphate buffer (Formulation 1), preF 0.3 mg/ml, 1:3 trimer:compound, RT to −70° C. in 24 hours) | binding to bNAbs vs Env without inhibitor (HIV Env ConB SOSIP) | binding to five tested non-bNAbs, except for 447-52D, vs Env without inhibitor (HIV Env ConB SOSIP) | quality of HIV Env by antigenicity (AlphaLISA) vs Env without inhibitor (HIV Env ConB SOSIP; Citrate buffer pH 6.0) | increase of melting temperature of Env (nanoDSF) (HIV-1 ConB-SOSIP Env) |
| --- | --- | --- | --- | --- | --- | --- | --- | --- |
| CS(=O)(=O)CCCn1c(Cn2c(=O)n(CC(F)(F)F)c3ccncc32)cc2cc(Cl)ccc21 [Compound IV, 3-[[5-chloro-1-(3-methylsulfonylpropyl)indol-2-yl]methyl]-1-(2,2,2-trifluoroethyl)imidazo[4,5-c]pyridin-2-one] | higher trimer % | no aggregations were observed | 8.65 nm | – | – | – | – | – |
| CS(=O)(=O)CCCn1c(Cn2c(=O)n(C3CC3)c3ccncc32)nc2cc(Cl)ccc21 [Compound II, 3-[[5-chloro-1-(3-methylsulfonylpropyl)benzimidazol-2-yl]methyl]-1-cyclopropyl-imidazo[4,5-c]pyridin-2-one] | higher trimer % | no aggregations were observed | – | 2.4+/−1.9% | – | – | – | – |
| COc1ccnc2[nH]cc(C(=O)C(=O)N3CCN(C(=O)c4ccccc4)C[C@H]3C)c12 [XVII, 1-[(2R)-4-benzoyl-2-methyl-piperazin-1-yl]-2-(4-methoxy-1H-pyrrolo[2,3-b]pyridin-3-yl)ethane-1,2-dione] | – | – | – | – | higher | decreased | superior | ~5 °C |
